Reference: patent US20080255128A1, “PHTHALAZINONE DERIVATIVES” (priority 2007, published 2008)
Entries after “also recorded” stand apart in the source; their conditions may differ.

Assay: Stereochemical stability of separated isomers on standing in solution
Format: physicochemical
Settings: after separation by chiral HPLC
Procedure: has a chiral centre where indicated. This racemic mixture was separated using chiral preparative HPLC.
This separation was carried out on a Rainin prep machine (200 ml heads) using a Merck 100 mm 20 μm Chiralpak AD column. The Eluent was a mixture of i-hexane, ethanol and methanol (70:15:15), which was flowed at a rate of 190 ml/min. The analaysis was carried out with a wavelength of 215 nm. Complete separation of the two isomers was achieved using a sample concentration of 12.5 mg/ml, an injection volumn of 40 ml and a run time of 3 hours.

CC1C(=O)N(c2cc(Cc3n[nH]c(=O)c4ccccc34)ccc2F)C(=O)N1CCN1CCCC1 (racemic) [Compound 9, 3-(2-fluoro-5-((4-oxo-3,4-dihydrophthalazin-1-yl)methyl)phenyl)-5-methyl-1-(2-(pyrrolidin-1-yl)ethyl)imidazolidine-2,4-dione]
stereochemical stability in solution: epimerise on standing in solution; also recorded: racemises
